Measurements published in patent US6989396B2, “Tropane alkaloid multidrug resistance inhibitors from Erythroxylum pervillei and use of the same” (The Board of Trustees of the University of Illinois, priority 2001, dated 2006).
In brackets after ≈: the same amount, converted by molar mass. Several values for one entry are separate records, joined by “and”; a condition that tells them apart may be missing. Identical values can stand only once. Like-named read-outs stand apart in the source and are kept apart here.

How the values were obtained:
BC1, breast cancer = assay: In vitro cytotoxicity, human tumor panel: BC1; assay type: cell-based; details: for IC50: Homo sapiens, read-out: ED50 BCI
Experimental: (§1) Cytotoxicity assay. Compounds 1–9 were evaluated for cytotoxic activity against a panel of human cancer cell lines, including KB-V1 in the presence and absence of VLB, according to an established protocol (68).

Lu1, lung cancer = assay: In vitro cytotoxicity, human tumor panel: Lu1; assay type: cell-based; details: for IC50: Homo sapiens, read-out: ED50 Lu1
Experimental: as §1

Col2, colon cancer = assay: In vitro cytotoxicity, human tumor panel: Col2; assay type: cell-based; details: for IC50: Homo sapiens, read-out: ED50 Col2
Experimental: as §1

[1] = test system: KB, oral epidermoid carcinoma; assay: In vitro cytotoxicity, human tumor panel: KB; assay type: cell-based; details: for IC50: Homo sapiens, read-out: ED50 KB
Experimental: as §1

KB-V1, drug resistant KB = assay: In vitro cytotoxicity, human tumor panel: KB-V1 with or without vinblastine; assay type: cell-based; details: for IC50: Homo sapiens, KB-V1, read-out: ED50 KB-V1−; for ED50 KB-V1+: drug resistant KB assessed in presence of vinblastine (1 μg/mL)
Experimental: as §1

[2] = test system: LNCaP, hormone-dependent prostate cancer; assay: In vitro cytotoxicity, human tumor panel: LNCaP; assay type: cell-based; details: for IC50: Homo sapiens, LNCaP, read-out: ED50 LNCaP
Experimental: as §1

[3] = test system: SW626, human ovarian adenocarcinoma; assay: In vitro cytotoxicity, human tumor panel: SW626; assay type: cell-based; details: for IC50: SW626, read-out: ED50 SW626
Experimental: as §1

[4] = test system: SKOV3 (ovarian adenocarcinoma); assay: Cytotoxicity in ovarian adenocarcinoma SKOV3 (pGp -ve); assay type: cell-based
Experimental: as §1

[5] = test system: SKVLB (ovarian adenocarcinoma, multidrug resistance); assay: Multidrug resistance inhibition in SKVLB (pGp +ve); assay type: cell-based, human
CEM/VLB100 cells = assay: MDR reversal in drug-resistant human leukemia CEM/VLB100 cells; assay type: cell-based; details: Homo sapiens
Experimental: (§2) Cytotoxic potential. The cytotoxic potential of test substances with KB-3, KB-V1 and KB-8-5 cells was determined as described previously (24). Briefly, various concentrations of test compounds (dissolved in 10 μl of 10% DMSO) were transferred to 96-well plates, and 190 μl aliquots of cell suspensions (5×10^4 cells/ml) were added to each well. The plates then were incubated for 72 hours at 37° C. (100% humidity with a 5% CO2 atmosphere in air), and 100 μl of cold 20% aqueous trichloroacetic acid were added to the growth medium in each well to fix the cells. The cultures were incubated at 4° C. for 30 minutes, washed, air-dried, stained with sulforhodamine B solution, and washed with 1% acetic acid. […] In each case, a zero-day control was performed by adding an equivalent number of cells to several wells and incubating at 37° C. for 30 minutes, and processing as described above. Optical density values obtained with the zero-day control were subtracted, and cell survival, relative to control (solvent-treated) cultures, was calculated. The cytotoxic potential of the compounds with CEM and CEM/VLB100 cells was determined as described by Beck et al. (30). Cells were grown in 24-well plates at a density of 5–6×10^5 cells/ml. At 48 hours, the cell number was determined using a Coulter Counter, with a channelizer to distinguish cells from debris.

KB-3 cells = assay: Growth inhibitory potential (sulforhodamine B cell survival assay): KB-3; assay type: cell-based; details: Homo sapiens, KB3, 72 h, read-out: IC50 KB-3
Experimental: (§3) One part of a natural product drug discovery program involves monitoring the potential of plant extracts to reverse multiple drug resistance. […] To investigate the potential of plant extracts or compounds to reverse multidrug-resistance, KB-V1 cells are treated with different concentrations of plant extracts or compounds in the presence (1 μg/ml) or absence of vinblastine.
Cytotoxic potential. The cytotoxic potential of test substances with KB-3, KB-V1 and KB-8-5 cells was determined as described previously (24). Briefly, various concentrations of test compounds (dissolved in 10 μl of 10% DMSO) were transferred to 96-well plates, and 190 μl aliquots of cell suspensions (5×10^4 cells/ml) were added to each well. The plates then were incubated for 72 hours at 37° C. (100% humidity with a 5% CO2 atmosphere in air), and 100 μl of cold 20% aqueous trichloroacetic acid were added to the growth medium in each well to fix the cells. The cultures were incubated at 4° C. for 30 minutes, washed, air-dried, stained with sulforhodamine B solution, and washed with 1% acetic acid. Finally, 200 μl of 10 mM Tris base were added to each well and the optical densities were determined at 515 nm utilizing an ELISA plate reader. In each case, a zero-day control was performed by adding an equivalent number of cells to several wells and incubating at 37° C. for 30 minutes, and processing as described above. Optical density values obtained with the zero-day control were subtracted, and cell survival, relative to control (solvent-treated) cultures, was calculated. The cytotoxic potential of the compounds with CEM and CEM/VLB100 cells was determined as described by Beck et al. (30). Cells were grown in 24-well plates at a density of 5–6×10^5 cells/ml. At 48 hours, the cell number was determined using a Coulter Counter, with a channelizer to distinguish cells from debris.

KB-V1 cells [6] = assay: Reversal of MDR, cell survival assay: KB-V1 with or without vinblastine; assay type: cell-based, human
Experimental: as §3, §2

KB-8-5 cells [7] = assay: Reversal of MDR, cell survival assay: KB-8-5 with or without colchicine; assay type: cell-based, human; details: Homo sapiens
Experimental: as §2

KB-V1 cells [8] = assay: In vivo hollow fiber test: KB-V1; design: species or system NCr nu/nu mice
Experimental: (§4) In vivo hollow fiber test. […] Confluent monolayers of KB-3, KB-V1 or KB-8-5 cells were harvested, collected by centrifugation and resuspended in conditioned medium at a concentration of 7.5×10^5 cells/ml.
(§5) Test compounds were administrated once daily by intraperitoneal injection from day 3–6 after implantation. Body weights were measure daily.
(§6) After incubating at 37° C. for 4 hours, the culture medium was aspirated and the samples were washed twice with normal saline containing 2.5% protamine sulfate solution by overnight incubation at 4° C. […] The formazan was extracted from each sample with DMSO (250 μl/well) for 4 hours at room temperature on a rotation platform.

KB-8-5 cells [9] = assay: In vivo hollow fiber test: KB-8-5; design: species or system NCr nu/nu mice
Experimental: as §4, §5, §6

[10] = drug-resistant KB assessed in the absence of vinblastine
[11] = Homo sapiens, SK-OV-3; read-out: IC50 SKOV3 (pGp − ve)
[12] = Homo sapiens, no adriamycin added, read-out: IC50 BSKVLB (pGp + ve)
[13] = summation of single-agent inhibitions
[14] = vinblastine 100 μg/kg + reversing agent 0.136 mmol/kg

## CN1[C@@H]2C[C@@H](OC(=O)Cc3ccccc3)C[C@H]1[C@H](O)[C@@H]2O [Compound 1, Tropane-3α,6β,7β-triol 3-phenylacetate]
BC1, breast cancer
  IC50: > 20 µg/mL
Lu1, lung cancer
  IC50: > 20 µg/mL
Col2, colon cancer
  IC50: > 20 µg/mL
[1]
  IC50: > 20 µg/mL
KB-V1, drug resistant KB; [10]
  IC50: > 20 µg/mL
KB-V1, drug resistant KB
  ED50 KB-V1+: >20 µg/mL
[2]
  IC50: > 20 µg/mL
[3]
  IC50: > 20 µg/mL
other
  melting point: 120 to 122 °C

## COc1cc(C(=O)O[C@H]2C[C@H]3CC[C@@H](C2)N3C)cc(OC)c1OC [Compound 2, 1αH,5αH-Tropan-3α-yl 3,4,5-trimethoxy-benzoate]
BC1, breast cancer
  ED50 BCI: >20 µg/mL
Lu1, lung cancer
  ED50 Lu1: >20 µg/mL
Col2, colon cancer
  ED50 Col2: >20 µg/mL
[1]
  ED50 KB: >20 µg/mL
KB-V1, drug resistant KB
  ED50 KB-V1+: >20 µg/mL
KB-V1, drug resistant KB; [10]
  ED50 KB-V1−: >20 µg/mL
[2]
  ED50 LNCaP: >20 µg/mL
[3]
  ED50 SW626: >20 µg/mL

## COc1cc(C=CC(=O)O[C@H]2[C@@H](O)[C@@H]3C[C@H](OC(=O)c4cc(OC)c(OC)c(OC)c4)C[C@H]2[N+]3(C)[O-])cc(OC)c1OC (stereo partly drawn) [Compound 4, 3α-(3,4,5-trimethoxybenzoyloxy)-6β-(3,4,5-trimethoxycinnamoyloxy)-7β-hydroxytropane N-oxide]
BC1, breast cancer
  IC50: > 20 µg/mL
Lu1, lung cancer
  IC50: > 20 µg/mL
Col2, colon cancer
  IC50: > 20 µg/mL
[1]
  IC50: > 20 µg/mL
KB-V1, drug resistant KB; [10]
  IC50: > 20 µg/mL
KB-V1, drug resistant KB
  ED50 KB-V1+: >20 µg/mL
[2]
  IC50: > 20 µg/mL
[3]
  IC50: > 20 µg/mL
[4]; Homo sapiens, SK-OV-3, read-out: IC50 SKOV3 (pGp − ve)
  IC50: > 10 µM
[5]; Homo sapiens, read-out: IC50 BSKVLB (pGp + ve)
  IC50: > 10 µM
[5]; read-out: IC50 SKVLB (pGp + ve), addition of adriamycin, Addition of 1 μm adriamycin
  IC50: > 10 µM
other
  melting point: 118 to 121 °C

## COc1cc(C=CC(=O)O[C@H]2C[C@@H]3C[C@H](OC(=O)Cc4cccc(O)c4)C[C@H]2N3C)cc(OC)c1OC [Compound 8, 3α-(3-hydroxyphenylacetoxy)-6β-(3,4,5-trimethoxycinnamoyloxy)-tropane]
BC1, breast cancer
  IC50: > 20 µg/mL
Lu1, lung cancer
  IC50: > 20 µg/mL
Col2, colon cancer
  IC50: 13.4 µg/mL (≈ 26.2 µM)
[1]
  IC50: 14.7 µg/mL (≈ 28.7 µM)
KB-V1, drug resistant KB; [10]
  IC50: > 20 µg/mL
KB-V1, drug resistant KB
  ED50 KB-V1+: 1.9 µg/mL
[2]
  IC50: > 20 µg/mL
[3]
  IC50: 8.4 µg/mL (≈ 16.4 µM)
other
  melting point: 53 to 57 °C

## COc1cc2c(cc1OC)CN(CCc1ccc(NC(=O)c3cccc4c(=O)c5cccc(OC)c5[nH]c34)cc1)CC2 [GB120918, N-{4-[2-(1,2,3,4-tetrahydro-6,7-dimethoxy-2-isoquinolinyl)-ethyl]-phenyl}-9,10-dihydro-5-methoxy-9-oxo-4-acridine carboxamide, reference compound]
[4]; [11]
  IC50: 8.1 µM
[5]; Homo sapiens, Addition of 1 μm adriamycin, read-out: IC50 SKVLB (pGp + ve), addition of adriamycin
  IC50: 0.02 µM
[5]; [12]
  IC50: 14 µM

## COc1cccc2c1C(=O)c1c(O)c3c(c(O)c1C2=O)C[C@@](O)(C(=O)CO)C[C@@H]3O[C@H]1C[C@H](N)[C@H](O)[C@H](C)O1 [adriamycin, reference compound]
[4]; [11]
  IC50: 0.008 µM
[5]; [12]
  IC50: 2.2 µM

## COc1cccc2c1C(=O)c1c(O)c3c(c(O)c1C2=O)C[C@@](O)(C(C)=O)C[C@@H]3O[C@H]1C[C@H](N)[C@H](O)[C@H](C)O1 [daunorubicin, reference compound]
CEM/VLB100 cells; CEM/VLB100 cells, read-out: IC50 value of the cytotoxic drug in the absence of modulator
  IC50: 1 µM

## COc1ccc(CCN(C)CCCC(C#N)(c2ccc(OC)c(OC)c2)C(C)C)cc1OC (stereo not drawn) [verapamil, reference compound]
KB-3 cells
  IC50: 37 µM
KB-V1 cells [6]; Homo sapiens, KB-V1, 72 h, read-out: IC50 KB-V1 (+), presence of vinblastine (1 μg/ml), 72 hours
  IC50: 0.79 µM
KB-V1 cells [6]; Homo sapiens, KB-V1, 72 h, read-out: IC50 KB-V1 (−), absence of vinblastine, 72 hours
  IC50: > 44 µM
KB-V1 cells [6]; read-out: IC50 KB-V1 (−), absence of vinblastine, 72 hours
  IC50: 44 µM
KB-8-5 cells [7]
  IC50: > 44 µM
CEM/VLB100 cells; CEM/VLB100, 48 h, read-out: IC50 Modulator only
  IC50: > 15 µM
CEM/VLB100 cells; CEM/VLB100, read-out: IC50 (Modulator + Daunorubicin)
  IC50: 0.5 µM
CEM/VLB100 cells; CEM/VLB100, read-out: IC50 (Modulator + Vinblastine)
  IC50: 0.025 µM
KB-V1 cells [8]; KB-V1 or KB-8-5 cells in hollow fibers implanted into NCr nu/nu mice
  inhibition of cell growth when used in combination with vinblastine: less effective
KB-V1 cells [8]; [13]
  Calculated inhibition (vinblastine + reversing agent as single agents), KB-V1, i.p. site: 7.4% and 6.2%
  Calculated inhibition (vinblastine + reversing agent as single agents), KB-V1, s.c. site: 3.8% and 10.8%
KB-V1 cells [8]; vinblastine 250 μg/kg + reversing agent 0.136 mmol/kg
  Observed inhibition from coadministration with vinblastine, KB-V1, s.c. site: 7.8 (P = 0.73) % and 13.6 (P = 0.098) %
KB-V1 cells [8]; vinblastine 250 μg/kg + reversing agent 0.136 mmol/kg, i.p. injection once daily days 3–6
  Observed inhibition from coadministration with vinblastine, KB-V1, i.p. site: 60.3 (P < 0.0001) % and 56.6 (P < 0.0001) %
KB-8-5 cells [9]; [13]
  Calculated inhibition (vinblastine + reversing agent as single agents), KB-8-5, i.p. site: 5.9%
  Calculated inhibition (vinblastine + reversing agent as single agents), KB-8-5, s.c. site: 3.7%
KB-8-5 cells [9]; [14]
  Observed inhibition from coadministration with vinblastine, KB-8-5, i.p. site: 52 (P < 0.0001) %
  Observed inhibition from coadministration with vinblastine, KB-8-5, s.c. site: 11.7 (P = 0.06) %
KB-8-5 cells [9]; vinblastine 100 μg/kg, reversing agents 0.136 mmol/kg
  Growth inhibition, single agent, KB-8-5, s.c. site: 1.4%
KB-8-5 cells [9]; vinblastine 100 μg/kg, reversing agents 0.136 mmol/kg, i.p. injection once daily days 3–6
  Growth inhibition, single agent, KB-8-5, i.p. site: 4.7%
